Assay results published in patent publication US6355799B1, “Substituted benzene compounds, process for their preparation, and herbicidal and defoliant compositions containing them” (ISK Americas Incorporated, priority 1997, dated 2002).

Assays:
Assay type in all cases: in vivo
[1] = tested on: sicklepod (Cassia obtusifolia, CASOB); assay: Post-emerge test, greenhouse herbicide activity screening; settings: phytotoxicity rating 0-100 (0 no damage, 100 complete death), 14 days after application
Procedure, shortened: (§1)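 Herbicidal damage is scored 0 (none) to 100 (complete plant death) two weeks after a simulated field spray. Rates span 15–1000 g ai/ha, delivered in acetone at 187 l/ha. For post-emergence treatments, plants have 2–3 leaves and the spray carries 0.25% v/v non-ionic surfactant.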

[2] = tested on: johnsongrass (Sorghum halepense, SORHA); assay: as above; settings: phytotoxicity rating 0-100 (0 no damage, 100 complete death), 14 days after application
Procedure, shortened: as §1

[3] = tested on: velvetleaf (Abutilon theophrasti, ABUTH); assay: as above; settings: phytotoxicity rating 0-100 (0 no damage, 100 complete death), 14 days after application
Procedure, shortened: as §1

[4] = tested on: green foxtail (Setaria viridis, SETVI); assay: as above; settings: phytotoxicity rating 0-100 (0 no damage, 100 complete death), 14 days after application
Procedure, shortened: as §1

[5] = tested on: ivyleaf morningglory (Ipomoea hederacea, IPOHE); assay: as above; settings: phytotoxicity rating 0-100 (0 no damage, 100 complete death), 14 days after application
Procedure, shortened: as §1

[6] = tested on: barnyardgrass (Echinochloa crus-galli, ECHCG); assay: as above; settings: phytotoxicity rating 0-100 (0 no damage, 100 complete death), 14 days after application
Procedure, shortened: as §1

[7] = tested on: lambsquarters (Chenopodium album, CHEAL); assay: as above; settings: phytotoxicity rating 0-100 (0 no damage, 100 complete death), 14 days after application
Procedure, shortened: as §1

[8] = tested on: large crabgrass (Digitaria sanguinalis, DIGSA); assay: as above; settings: phytotoxicity rating 0-100 (0 no damage, 100 complete death), 14 days after application
Procedure, shortened: as §1

[9] = tested on: redroot pigweed (Amaranthus retroflexus, AMARE); assay: as above; settings: phytotoxicity rating 0-100 (0 no damage, 100 complete death), 14 days after application
Procedure, shortened: as §1

[10] = tested on: field corn (Zea mays L., var. Dekalb 535, CORN); assay: Pre-emerge test, crop safety; settings: pre-emerge, rated 14 days after application, 0 = no damage, 100 = complete death
Procedure, shortened: (§2)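 Compounds in acetone were track-sprayed at 187 l/ha, 15–1000 g ai/ha, onto sandy loam pots. Pre-emerge seeds were sown one day before spraying, with surface watering afterwards. Post-emerge plants were at the 2–3 leaf stage and sprayed with 0.25% v/v non-ionic surfactant. Injury was rated 0–100 at 14 days.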

[11] = tested on: upland rice (Oryza sp., var. Tebonnet, RICE); assay: Pre-emerge test, crop safety; settings: pre-emerge, rated 14 days after application, 0 = no damage, 100 = complete death
Procedure, shortened: as §2

[12] = tested on: redroot pigweed (Amaranthus retroflexus, AMARE); assay: Pre-emerge test, greenhouse herbicide activity screening; settings: pre-emerge, rated 14 days after application, 0 = no damage, 100 = complete death
Procedure, shortened: as §1

[13] = tested on: field corn (Zea mays L., var. Dekalb 535, CORN); assay: Post-emerge test, crop safety; settings: phytotoxicity rating 0-100 (0 no damage, 100 complete death), 14 days after application
Procedure, shortened: (§3)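 Rating: 0–100 visual injury, 14 DAA. Application: acetone, 187 l/ha, 15–1000 g ai/ha, flat-fan track sprayer with nozzle 40–45 cm above soil or canopy. Post-emerge runs used 0.25% v/v surfactant on 2–3 leaf plants.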

[14] = tested on: upland rice (Oryza sp., var. Tebonnet, RICE); assay: Post-emerge test, crop safety; settings: phytotoxicity rating 0-100 (0 no damage, 100 complete death), 14 days after application
Procedure, shortened: as §3

[15] = tested on: sicklepod (Cassia obtusifolia, CASOB); assay: Pre-emerge test, greenhouse herbicide activity screening; settings: pre-emerge, rated 14 days after application, 0 = no damage, 100 = complete death
Procedure, shortened: (§4)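 Compounds in acetone were track-sprayed at 15–1000 g ai/ha: pre-emergence onto soil sown the previous day, then top-watered to incorporate and later bottom-watered; post-emergence onto 2–3 leaf plants with 0.25% v/v surfactant, bottom-watered only. Ratings on a 0–100 phytotoxicity scale were taken at day 14.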

[16] = tested on: johnsongrass (Sorghum halepense, SORHA); assay: as above; settings: pre-emerge, rated 14 days after application, 0 = no damage, 100 = complete death
Procedure, shortened: as §4

[17] = tested on: velvetleaf (Abutilon theophrasti, ABUTH); assay: as above; settings: pre-emerge, rated 14 days after application, 0 = no damage, 100 = complete death
Procedure, shortened: as §4

[18] = tested on: green foxtail (Setaria viridis, SETVI); assay: as above; settings: pre-emerge, rated 14 days after application, 0 = no damage, 100 = complete death
Procedure, shortened: as §4

[19] = tested on: ivyleaf morningglory (Ipomoea hederacea, IPOHE); assay: as above; settings: pre-emerge, rated 14 days after application, 0 = no damage, 100 = complete death
Procedure, shortened: as §4

[20] = tested on: barnyardgrass (Echinochloa crus-galli, ECHCG); assay: as above; settings: pre-emerge, rated 14 days after application, 0 = no damage, 100 = complete death
Procedure, shortened: as §4

[21] = tested on: lambsquarters (Chenopodium album, CHEAL); assay: as above; settings: pre-emerge, rated 14 days after application, 0 = no damage, 100 = complete death
Procedure, shortened: as §4

[22] = tested on: large crabgrass (Digitaria sanguinalis, DIGSA); assay: as above; settings: pre-emerge, rated 14 days after application, 0 = no damage, 100 = complete death
Procedure, shortened: as §4

COc1c(Cl)cc(F)c(-n2c(=O)cc(C(F)(F)F)n(C)c2=O)c1N(C(=O)C=C(C)C)C(=O)C=C(C)C [2-8]
50: Post-emerge Herbicidal Activity IPOHE ([5]; 250 g ai/ha) | Pre-emerge crop damage RICE (phytotoxicity rating, scale 0-100) ([11]; 63 g ai/ha) | Pre-emerge crop damage RICE (phytotoxicity rating, scale 0-100) ([11]; 250 g ai/ha)
0: Post-emerge Herbicidal Activity CASOB ([1]; 63 g ai/ha) | Post-emerge Herbicidal Activity CASOB ([1]; 250 g ai/ha) | Post-emerge Herbicidal Activity SORHA ([2]; 63 g ai/ha) | Post-emerge Herbicidal Activity SORHA ([2]; 250 g ai/ha) | Post-emerge Herbicidal Activity ABUTH ([3]; 63 g ai/ha) | Post-emerge Herbicidal Activity SETVI ([4]; 63 g ai/ha) | Post-emerge Herbicidal Activity SETVI ([4]; 250 g ai/ha) | Post-emerge Herbicidal Activity IPOHE ([5]; 63 g ai/ha) | Post-emerge Herbicidal Activity ECHCG ([6]; 63 g ai/ha) | Post-emerge Herbicidal Activity ECHCG ([6]; 250 g ai/ha) | Post-emerge Herbicidal Activity CHEAL ([7]; 63 g ai/ha) | Post-emerge Herbicidal Activity DIGSA ([8]; 63 g ai/ha) | Post-emerge Herbicidal Activity DIGSA ([8]; 250 g ai/ha) | Post-emerge Herbicidal Activity AMARE ([9]; 63 g ai/ha) | Post-emerge Herbicidal Activity CORN (crop damage) ([13]; 63 g ai/ha) | Post-emerge Herbicidal Activity CORN (crop damage) ([13]; 250 g ai/ha) | Post-emerge Herbicidal Activity RICE (crop damage) ([14]; 63 g ai/ha) | Post-emerge Herbicidal Activity RICE (crop damage) ([14]; 250 g ai/ha) | Pre-emerge Herbicidal Activity CASOB (phytotoxicity rating, scale 0-100) ([15]; 63 g ai/ha) | Pre-emerge Herbicidal Activity CASOB (phytotoxicity rating, scale 0-100) ([15]; 250 g ai/ha) | Pre-emerge Herbicidal Activity ABUTH (phytotoxicity rating, scale 0-100) ([17]; 63 g ai/ha) | Pre-emerge Herbicidal Activity IPOHE (phytotoxicity rating, scale 0-100) ([19]; 63 g ai/ha) | Pre-emerge Herbicidal Activity ECHCG (phytotoxicity rating, scale 0-100) ([20]; 63 g ai/ha) | Pre-emerge Herbicidal Activity ECHCG (phytotoxicity rating, scale 0-100) ([20]; 250 g ai/ha)
60: Post-emerge Herbicidal Activity CHEAL ([7]; 250 g ai/ha) | Pre-emerge Herbicidal Activity CHEAL (phytotoxicity rating, scale 0-100) ([21]; 63 g ai/ha)
15: Pre-emerge crop damage CORN (phytotoxicity rating, scale 0-100) ([10]; 63 g ai/ha) | Pre-emerge crop damage CORN (phytotoxicity rating, scale 0-100) ([10]; 250 g ai/ha)
20: Post-emerge Herbicidal Activity AMARE ([9]; 250 g ai/ha)
100: Pre-emerge Herbicidal Activity AMARE (phytotoxicity rating, scale 0-100) ([12]; 250 g ai/ha) | Pre-emerge Herbicidal Activity ABUTH (phytotoxicity rating, scale 0-100) ([17]; 250 g ai/ha) | Pre-emerge Herbicidal Activity IPOHE (phytotoxicity rating, scale 0-100) ([19]; 250 g ai/ha) | Pre-emerge Herbicidal Activity CHEAL (phytotoxicity rating, scale 0-100) ([21]; 250 g ai/ha)
90: Pre-emerge Herbicidal Activity SETVI (phytotoxicity rating, scale 0-100) ([18]; 63 g ai/ha) | Pre-emerge Herbicidal Activity SETVI (phytotoxicity rating, scale 0-100) ([18]; 250 g ai/ha)
40: Post-emerge Herbicidal Activity ABUTH ([3]; 250 g ai/ha) | Pre-emerge Herbicidal Activity AMARE (phytotoxicity rating, scale 0-100) ([12]; 63 g ai/ha) | Pre-emerge Herbicidal Activity SORHA (phytotoxicity rating, scale 0-100) ([16]; 63 g ai/ha) | Pre-emerge Herbicidal Activity SORHA (phytotoxicity rating, scale 0-100) ([16]; 250 g ai/ha)
80: Pre-emerge Herbicidal Activity DIGSA (phytotoxicity rating, scale 0-100) ([22]; 63 g ai/ha) | Pre-emerge Herbicidal Activity DIGSA (phytotoxicity rating, scale 0-100) ([22]; 250 g ai/ha)
